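Five compound concentrations were applied to cells in 96-well plates for 48 hours; endpoints were derived by simple linear interpolation of the resulting dose-response curve. GI50 marks 50% less growth.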 Activity calls are given as the source filed them. Cut-off read from the data, not from the text of the source: active = GI50 up to about 1.1 µM and inactive = higher.
Columns and labels:
Assay in all cases: inhibition of tumour cell growth, NCI panel, 48 h
ACHN = system: ACHN
HCT-116 = system: HCT-116
HL-60 = system: HL-60
HOP-62 = system: HOP-62
HT-29 = system: HT-29
M14 = system: M14
NCI-H226 = system: NCI-H226
NCI-H522 = system: NCI-H522
RPMI-8226 = system: RPMI-8226
SK-MEL-5 = system: SK-MEL-5
SK-OV-3 = system: SK-OV-3
SN12C = system: SN12C
SNB-75 = system: SNB-75
SR = system: SR
UACC-62 = system: UACC-62
UO-31 = system: UO-31
OVCAR-8 = system: OVCAR-8

Measured: GI50

Cc1cc(=O)n(-c2ccccc2)c(=O)o1
inactive: ACHN > 100 µM | HCT-116 > 100 µM | HL-60 > 100 µM | HOP-62 > 100 µM | HT-29 > 100 µM | M14 > 100 µM | NCI-H226 > 100 µM | NCI-H522 62.7 µM | RPMI-8226 > 100 µM | SK-MEL-5 > 100 µM | SK-OV-3 > 100 µM | SN12C > 100 µM | SNB-75 > 100 µM | SR > 100 µM | UACC-62 > 100 µM | UO-31 > 100 µM

CCC1(CC)C(=O)NC(=S)N=C1N
inactive: ACHN > 100 µM | HCT-116 > 100 µM | HL-60 > 100 µM | HOP-62 > 100 µM | HT-29 > 100 µM | M14 > 100 µM | NCI-H226 > 100 µM | NCI-H522 > 100 µM | OVCAR-8 > 100 µM | RPMI-8226 > 100 µM | SK-OV-3 > 100 µM | SN12C > 100 µM | SNB-75 57 µM | UACC-62 > 100 µM | UO-31 > 100 µM

O=C(/N=C(\Nc1ccccc1)SCCS/C(=N/C(=O)c1cccs1)Nc1ccccc1)c1cccs1
inactive: ACHN 43.6 µM | HCT-116 49 µM | HOP-62 80.4 µM | HT-29 33.3 µM | M14 55.8 µM | NCI-H226 55.8 µM | NCI-H522 20.9 µM | OVCAR-8 73.3 µM | RPMI-8226 36.8 µM | SK-MEL-5 21.5 µM | SN12C 59.8 µM | SNB-75 35.6 µM | UACC-62 47 µM | UO-31 31.7 µM

O=c1[nH]c(=O)n([C@@H]2C[C@H](CO)[C@H](O)C2)cc1/C=C/Br
inactive: ACHN > 100 µM | HCT-116 > 100 µM | HL-60 > 100 µM | HOP-62 > 100 µM | HT-29 > 100 µM | M14 > 100 µM | NCI-H226 > 100 µM | NCI-H522 > 100 µM | OVCAR-8 > 100 µM | RPMI-8226 > 100 µM | SK-MEL-5 > 100 µM | SK-OV-3 > 100 µM | SNB-75 > 100 µM | UACC-62 > 100 µM | UO-31 > 100 µM

COC1CCC(OS(C)(=O)=O)C(CO)O1 (centres undefined)
inactive: ACHN > 100 µM | HCT-116 > 100 µM | HL-60 > 100 µM | HOP-62 > 100 µM | HT-29 > 100 µM | M14 > 100 µM | NCI-H522 > 100 µM | OVCAR-8 > 100 µM | SK-MEL-5 > 10 µM | SK-OV-3 > 100 µM | SN12C > 100 µM | SNB-75 > 100 µM | SR > 100 µM | UACC-62 > 100 µM | UO-31 > 100 µM

CS/C(=N\c1ccccc1Cl)NC(=O)c1ccc(Br)cc1
inactive: ACHN > 100 µM | HCT-116 > 100 µM | HL-60 34 µM | HOP-62 21.3 µM | HT-29 > 100 µM | M14 24.6 µM | NCI-H226 41 µM | NCI-H522 40.6 µM | OVCAR-8 > 100 µM | RPMI-8226 55.5 µM | SK-OV-3 63 µM | SN12C > 100 µM | SR 40.5 µM | UACC-62 28.4 µM | UO-31 > 100 µM

O=c1cc(-c2ccccc2)nc(/C=C(\O)c2ccncc2)n1-c1ccccc1
inactive: ACHN > 100 µM | HCT-116 > 100 µM | HL-60 > 100 µM | HOP-62 > 100 µM | HT-29 > 100 µM | M14 > 100 µM | NCI-H226 > 100 µM | NCI-H522 > 100 µM | OVCAR-8 > 100 µM | SK-MEL-5 > 100 µM | SK-OV-3 > 100 µM | SN12C > 100 µM | SNB-75 70.1 µM | UACC-62 > 100 µM | UO-31 > 100 µM

OCC(O)C(OC1OC(CO)C(O)C(O)C1O)c1nn(-c2ccc(F)cc2)c2nc3cc(Cl)c(Cl)cc3cc12 (centres undefined)
inactive: ACHN > 100 µM | HCT-116 > 100 µM | HOP-62 > 100 µM | HT-29 > 100 µM | M14 > 100 µM | NCI-H522 > 100 µM | OVCAR-8 > 100 µM | RPMI-8226 > 100 µM | SK-OV-3 > 100 µM | SN12C > 100 µM | SNB-75 > 100 µM | SR > 100 µM | UACC-62 > 100 µM | UO-31 > 100 µM

CC(C)[C@H](COC(C)(C)C)/N=C/N1CSc2ccccc21
inactive: ACHN 25.7 µM | HCT-116 27.6 µM | HL-60 26.4 µM | HOP-62 41.2 µM | HT-29 28.9 µM | M14 36.3 µM | NCI-H226 48.3 µM | NCI-H522 31.9 µM | OVCAR-8 35.2 µM | RPMI-8226 20.4 µM | SK-MEL-5 25.1 µM | SK-OV-3 29 µM | SN12C 28.1 µM | SNB-75 30.3 µM | UACC-62 48.8 µM | UO-31 96.2 µM

CCNC(=O)COc1ccc(Cl)cc1Cl
inactive: ACHN > 100 µM | HCT-116 > 100 µM | HL-60 > 100 µM | HOP-62 > 100 µM | HT-29 > 100 µM | M14 > 100 µM | NCI-H226 > 100 µM | NCI-H522 > 100 µM | OVCAR-8 > 100 µM | RPMI-8226 > 100 µM | SK-MEL-5 > 100 µM | SK-OV-3 > 100 µM | SN12C > 100 µM | SNB-75 > 100 µM | SR > 100 µM | UO-31 > 100 µM

COc1ccc2[nH]c3c4c(c5cc(C(C)(C)C)ccc5c3c2c1)C(=O)N(c1ccccc1)C4=O
inactive: HCT-116 > 100 µM | HL-60 > 100 µM | HOP-62 > 100 µM | HT-29 > 100 µM | M14 54.3 µM | NCI-H226 > 100 µM | NCI-H522 > 100 µM | OVCAR-8 44.7 µM | RPMI-8226 > 100 µM | SK-MEL-5 > 100 µM | SK-OV-3 > 100 µM | SNB-75 57 µM | UACC-62 > 100 µM | UO-31 > 100 µM

Cc1ccc(NC(=O)NC23CC4CC(CC(F)(C4)C2)C3)cc1
inactive: ACHN > 100 µM | HCT-116 41.3 µM | HL-60 64.3 µM | HOP-62 > 100 µM | HT-29 53.6 µM | M14 95.3 µM | NCI-H522 99.5 µM | OVCAR-8 > 100 µM | RPMI-8226 28.3 µM | SK-MEL-5 > 100 µM | SK-OV-3 > 100 µM | SNB-75 25.2 µM | UACC-62 69.3 µM | UO-31 40.1 µM

COc1ccc(C(C2=C(O)CC(C)OC2=O)C2=C(O)CC(C)OC2=O)cc1 (centres undefined)
inactive: ACHN > 100 µM | HCT-116 > 100 µM | HOP-62 > 100 µM | HT-29 > 100 µM | M14 > 100 µM | NCI-H226 > 100 µM | NCI-H522 > 100 µM | OVCAR-8 > 100 µM | RPMI-8226 > 100 µM | SK-MEL-5 > 100 µM | SN12C > 100 µM | SNB-75 > 100 µM | SR > 100 µM | UACC-62 > 100 µM | UO-31 > 100 µM

O=C1C2=C(CCCCC2)C2CCCCC12O (centres undefined)
inactive: ACHN > 100 µM | HCT-116 > 100 µM | HL-60 > 100 µM | HOP-62 > 100 µM | HT-29 > 100 µM | M14 > 100 µM | NCI-H226 > 100 µM | NCI-H522 > 100 µM | OVCAR-8 > 100 µM | RPMI-8226 > 100 µM | SK-OV-3 > 100 µM | SN12C > 100 µM | SNB-75 > 100 µM | SR > 100 µM | UACC-62 > 100 µM | UO-31 > 100 µM

CC1OC(n2cc(C(F)(F)F)c(=O)[nH]c2=O)C=CC1=O (centres undefined)
inactive: ACHN 17.5 µM | HCT-116 16.2 µM | HL-60 18.5 µM | HOP-62 27.7 µM | HT-29 24.5 µM | M14 22.9 µM | NCI-H226 28.4 µM | NCI-H522 16 µM | OVCAR-8 27.2 µM | RPMI-8226 13.5 µM | SK-OV-3 19.6 µM | SN12C 23.3 µM | SNB-75 16 µM | SR 12.7 µM | UACC-62 21 µM | UO-31 18.2 µM

NC1=NN(c2ccccc2)C(=O)C1C(=O)CCC(=O)Nc1cccc(Cl)c1 (centres undefined)
inactive: ACHN > 100 µM | HCT-116 > 100 µM | HL-60 > 100 µM | HOP-62 > 100 µM | HT-29 > 100 µM | M14 > 100 µM | NCI-H226 > 100 µM | NCI-H522 > 100 µM | OVCAR-8 > 100 µM | SK-MEL-5 > 100 µM | SK-OV-3 > 100 µM | SN12C > 100 µM | SNB-75 > 100 µM | UACC-62 > 100 µM | UO-31 > 100 µM

O=C(N/C(=C\c1ccc([N+](=O)[O-])cc1)c1nc2cc(Cl)ccc2[nH]1)c1ccccc1
inactive: ACHN 22 µM | HL-60 17.2 µM | HT-29 20.3 µM | M14 17.3 µM | NCI-H522 11.9 µM | OVCAR-8 30.1 µM | SK-MEL-5 17.6 µM | SK-OV-3 39.4 µM | SN12C 20.7 µM | SR 18 µM | UACC-62 18.7 µM | UO-31 13.9 µM

COC(c1ccccc1)C(c1ccccc1)N1CCOCC1 (centres undefined)
inactive: ACHN > 100 µM | HCT-116 > 100 µM | HL-60 89.5 µM | HOP-62 > 100 µM | HT-29 > 100 µM | M14 > 100 µM | NCI-H226 > 100 µM | NCI-H522 > 100 µM | OVCAR-8 > 100 µM | RPMI-8226 49.7 µM | SK-MEL-5 > 100 µM | SK-OV-3 > 100 µM | SN12C > 100 µM | SNB-75 > 100 µM | UACC-62 > 100 µM | UO-31 > 100 µM

— ChEMBL document CHEMBL1201862, “PubChem BioAssay data set” (2004)
